Source: ChEMBL document CHEMBL1130739 (Bioorg Med Chem Lett, 1998)

How the values were obtained:
[1] = Concentration required to inhibit proliferation in a mixture of human lymphocytes using mixed lymphocyte reaction test; format: functional, cell-based
[2] = molecular target: Dihydroorotate dehydrogenase (quinone), mitochondrial (Homo sapiens, UniProt Q02127); experiment: Inhibition of human recombinant dihydroorotate dehydrogenase (DHODase)
Sequence of Dihydroorotate dehydrogenase (quinone), mitochondrial (Q02127 whole entry): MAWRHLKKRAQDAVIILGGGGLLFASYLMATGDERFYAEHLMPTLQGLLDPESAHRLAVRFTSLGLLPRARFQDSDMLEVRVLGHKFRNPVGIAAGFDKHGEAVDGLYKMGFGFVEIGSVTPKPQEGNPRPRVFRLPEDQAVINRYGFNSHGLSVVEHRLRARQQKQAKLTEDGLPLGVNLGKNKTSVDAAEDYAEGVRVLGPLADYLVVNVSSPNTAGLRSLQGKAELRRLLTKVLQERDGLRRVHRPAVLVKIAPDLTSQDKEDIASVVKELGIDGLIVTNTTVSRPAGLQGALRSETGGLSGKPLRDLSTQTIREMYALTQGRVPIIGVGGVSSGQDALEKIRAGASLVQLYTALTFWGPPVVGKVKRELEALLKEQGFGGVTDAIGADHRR

SMILES	IC50 [1] [nM]	Ki [2] [nM]
O=C(O)c1c2c(nc3ccc(F)cc13)-c1ccc(-c3ccccc3F)cc1CC2	40	34
COc1cccc(-c2ccc3c(n2)CCc2c-3nc3ccc(F)cc3c2C(=O)O)c1	300	160
Cc1ccc(-c2ccc3c(c2)CSc2c-3nc3ccc(F)cc3c2C(=O)O)cc1	350	218
Cc1cccc(-c2ccc3c(c2)SCc2c-3nc3ccc(F)cc3c2C(=O)O)c1	14	37
O=C(O)c1c2c(nc3ccc(F)cc13)-c1ccc(-c3cccc(C(F)(F)F)c3)cc1CC2	18	43
O=C(O)c1c2c(nc3ccc(F)cc13)-c1ccc(-c3ccsc3)cc1CC2	170	52
Cc1cccc(-c2ccc3c(c2)CSc2c-3nc3ccc(F)cc3c2C(=O)O)c1	170	135
O=C(O)c1c2c(nc3ccc(F)cc13)-c1ccc(-c3ccccc3)cc1[S+]([O-])C2 (stereo unspecified)	240	206
O=C(O)c1c2c(nc3ccc(F)cc13)-c1ccc(-c3ccccc3)cc1OC2	220	48
O=C(O)c1c2c(nc3ccc(F)cc13)-c1ccc(-c3ccccc3)cc1CC2	30	8.3
Cc1c(-c2ccc(-c3ccccc3F)cc2)nc2ccc(F)cc2c1C(=O)O [BREQUINAR SODIUM]	15	
Cc1ccccc1-c1ccc2c(c1)CCc1c-2nc2ccc(F)cc2c1C(=O)O	30	10
O=C(O)c1c2c(nc3ccc(F)cc13)-c1cccc(-c3ccccc3)c1CC2	> 5000	300
O=C(O)c1c2c(nc3ccc(F)cc13)-c1ccc(-c3ccccc3)cc1CO2	380	> 204
COc1cccc(-c2ccc3c(c2)CCc2c-3nc3ccc(F)cc3c2C(=O)O)c1	10	25
Cc1ccccc1-c1ccc2c(c1)SCc1c-2nc2ccc(F)cc2c1C(=O)O	0.6	27
O=C(O)c1c2c(nc3ccc(F)cc13)-c1cc(-c3ccccc3)ccc1CC2	> 5000	> 1000
O=C(O)c1c2c(nc3ccc(F)cc13)-c1cnc(-c3ccccc3)nc1CC2	600	380

SMILES	IC50 [1] [nM]	Ki [2] [nM]
O=C(O)c1c2c(nc3ccc(F)cc13)-c1ccc(-c3ccccc3)cc1CS2	310	170
O=C(O)c1c2c(nc3ccc(C(F)(F)F)cc13)-c1ccc(-c3ccccc3)cc1CC2	52	31
Cc1ccccc1-c1ccc2c(c1)CSc1c-2nc2ccc(F)cc2c1C(=O)O	65	25
Cc1ccc(-c2ccc3c(c2)SCc2c-3nc3ccc(F)cc3c2C(=O)O)cc1	50	13
O=C(O)c1c2c(nc3ccc(F)cc13)-c1cccc(Oc3ccccc3)c1CC2	> 5000	962
O=C(O)c1c2c(nc3ccc(F)cc13)-c1sc(-c3ccccc3)cc1CC2	> 10000	> 182
O=C(O)c1c2c(nc3ccc(F)cc13)-c1ccc(-c3ccccc3)nc1CC2	100	409
O=C(O)c1c2c(nc3ccc(F)cc13)-c1ccc(-c3nccs3)cc1CC2	> 5000	> 180
COc1ccc(-c2ccc3c(c2)CCc2c-3nc3ccc(F)cc3c2C(=O)O)cc1	60	55
Cc1cccc(-c2ccc3c(c2)CCc2c-3nc3ccc(F)cc3c2C(=O)O)c1	60	59
Cc1cccc(-c2ccc3c(n2)CCc2c-3nc3ccc(F)cc3c2C(=O)O)c1	180	81
O=C(O)c1c2c(nc3ccc(F)cc13)-c1ccc(-c3ccccc3)cc1S(=O)(=O)C2	8500	139
O=C(O)c1c2c(nc3ccc(F)cc13)-c1ccc(-c3ccccc3C(F)(F)F)cc1CC2	50	40
COc1ccccc1-c1ccc2c(c1)CCc1c-2nc2ccc(F)cc2c1C(=O)O	50	20
O=C(O)c1c2c(nc3ccc(F)cc13)-c1ccc(-c3ccccc3)cc1SC2	16	17
O=C(O)c1c2c(nc3ccc(F)cc13)-c1ccc(-c3ccoc3)cc1CC2	280	190
O=C(O)c1c2c(nc3ccc(F)cc13)-c1ccc(-c3ccc(C(F)(F)F)cc3)cc1CC2	850	370
Cc1ccc(-c2ccc3c(c2)CCc2c-3nc3ccc(F)cc3c2C(=O)O)cc1	28	40
